By IC50 is commonly meant the concentration needed to halve the response being measured. A high value points to weaker potency in that assay.

The assay deals with Set1/Ash2 histone methyltransferase complex subunit ASH2 (Homo sapiens, UniProt Q9UBL3). Briefly: Filter-paper Assay. As to the method: This assay relies on Whatman P-81 filter paper, which binds peptides but not SAM. Protein Methyl Transferases (PMTs) transfer 3H-Me of [3H-Me]-SAM to peptide substrates and the resultant 3H-methylated, filter-paper-bound peptide is quantified with a scintillation counter. Briefly, 6 μL of the methylation reaction was spotted onto Whatman P-81 phosphocellulose filter paper (1.2×1.2 cm2) to immobilize the 3H-labeled peptide. After drying in air for 20 min, the filter paper was immersed into 20 mL of 50 mM Na2CO3/NaHCO3 buffer (pH=9.2), and washed 5 times for 10 min each time. The washed filter paper was then transferred to a 20 mL scintillation vial containing 1 mL of distilled water and 10 mL of Ultima Gold scintillation cocktail or 7 mL scintillation vial containing 0.5 mL od distilled water and 5 mL of scintillation cocktail (PerkinElmer). The radioactivity was quantified by a Beckman LS6000IC liquid scintillation counter.
Chain of Set1/Ash2 histone methyltransferase complex subunit ASH2 (Q9UBL3 whole entry, one chain of several): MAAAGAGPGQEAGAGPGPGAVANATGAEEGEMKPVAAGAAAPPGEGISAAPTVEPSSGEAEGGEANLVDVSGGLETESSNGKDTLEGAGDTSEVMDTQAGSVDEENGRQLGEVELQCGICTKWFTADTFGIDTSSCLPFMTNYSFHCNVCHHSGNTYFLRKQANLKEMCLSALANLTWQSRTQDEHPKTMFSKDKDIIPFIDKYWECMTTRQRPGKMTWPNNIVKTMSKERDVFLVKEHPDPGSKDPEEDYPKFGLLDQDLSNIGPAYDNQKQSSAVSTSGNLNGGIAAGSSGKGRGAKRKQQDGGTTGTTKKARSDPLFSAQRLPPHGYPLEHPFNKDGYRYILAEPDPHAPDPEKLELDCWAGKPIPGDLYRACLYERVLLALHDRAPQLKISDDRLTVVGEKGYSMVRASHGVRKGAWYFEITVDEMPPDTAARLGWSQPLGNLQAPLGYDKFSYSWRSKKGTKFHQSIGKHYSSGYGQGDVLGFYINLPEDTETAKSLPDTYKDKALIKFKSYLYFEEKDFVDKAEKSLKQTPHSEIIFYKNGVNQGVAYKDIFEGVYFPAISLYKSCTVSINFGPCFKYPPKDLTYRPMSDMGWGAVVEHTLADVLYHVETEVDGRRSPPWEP
`Nc1ncnc2c1ncn2C1OC(C[C@H](CC[C@H](N)C(=O)NCCc2cc(-c3ccccc3)[nH]n2)Nc2ccccc2)C(O)C1O` (stereo partly drawn) [US12043645, Example 5] returned an IC50 of 2200 nM.
Then `COc1ccc(CCNC(=O)[C@@H](N)CC[C@@H](CC2OC(n3cnc4c(N)ncnc43)C(O)C2O)Nc2ccccc2)cc1` (stereo partly drawn) [US12043645, Example 1], with 390 nM.
In turn, `CCCNC(=O)[C@@H](N)CC[C@@H](CC1OC(n2cnc3c(N)ncnc32)C(O)C1O)Nc1ccccc1` (stereo partly drawn) [US12043645, Example 7] registered an IC50 of 20 nM.

The record behind these values is BindingDB's records for patent US12043645 (Memorial Sloan-Kettering Cancer Center, 2024).
